For experiment [1], the system named is PHB2 (Ser39) phosphorylation. As to the kind of experiment: Ser39 phosphorylation of PHB2 in MCF-7 by Western blotting. The class given is cell-based, Human. The conditions noted are these: MCF-7, 10 μM each peptide, 10 nM estrogen, 24 hours (FIG. 2C). The procedure: (§1) For immunoblot analyses, after performing SDS-PAGE, the membranes blotted with proteins were blocked with 4% BlockAce solution (Dainippon Pharmaceutical, Osaka, Japan) for 3 hours and then incubated to react for 12 hours with antibodies against BIG3 (1:1,000), PHB2 (1:1,000) (Abcam, Cambridge, UK) and phosphorylated PHB2 (Ser39, Scrum, Tokyo, Japan). After allowing interaction with HRP-labeled secondary antibodies (anti-rat IgG-HRP for BIG3, 1:5,000; and anti-rabbit IgG-HRP for PHB2 and phosphorylated PHB2, 1:1,000) (Santa Cruz Biotechnology, Dallas, TX, USA) for 1 hour, the blots were developed with the Enhanced Chemiluminescence (ECL) system (GE Healthcare, Buckinghamshire, UK) and scanned using the Image Reader LAS-3000 mini (Fujifilm, Tokyo, Japan).
A general note: A western blot detects proteins with antibodies after separation by electrophoresis.

The test system of experiment [2] is Human breast cancer cell line MCF-7. As to the kind of experiment: Estrogen (E2)-dependent growth assay on MCF-7. The conditions noted are these: MCF-7, 10 μM each peptide, 10 nM estrogen, 24 hours. Type of experiment: cell-based. The method, then: (§2) Growth assay on MCF-7 was carried out by seeding cells into 48-well plates (2×10^4 cells/200 μL). First, on the next day after seeding, the medium was changed to phenol red-free DMEM/F12 (Thermo Fisher Scientific) supplemented with 10% FBS, 1% Antibiotic/Antimycotic solution, 0.1 mM NEAA, 1 mM sodium pyruvate, and 10 μg/mL insulin. 24 hours later, the cells were treated with 10 nM 17β-estradiol (estrogen, Sigma) alone or with 10 nM estrogen and a PHB2 sequence-derived peptide. Growth assay on MCF-10A was carried out by seeding cells into 48-well plates (2×10^4 cells/200 μL). 24 hours after seeding, PHB2 sequence-derived peptide was added. Growth assays were carried out using the Cell Counting Kit-8 (CCK-8) (Dojindo, Kumamoto, Japan). The data are shown by mean±standard deviation of three independent experiments.
PHB2 peptides 11-21aa and 76-88aa were cross-linked by three types of cross-linking methods (FIG. 10A: hexafluorobenzene cross-linking, decafluorobiphenyl cross-linking, and disulfide cross-linking) to prepare cross-linked PHB2 peptides (stapled PHB2 peptides) (FIG. 10B), and the suppressive effects of these peptides on estrogen-dependent growth were examined. In the experiment, breast cancer cells MCF-7 were seeded, 10 μM each PHB2 peptide and 10 nM estrogen were added after 48 hours, and the cell number was evaluated after another 24 hours by MTT assay.

Experiment [3] has as its system Normal mammary gland epithelial cell line MCF-10A. As to the kind of experiment: Growth assay on normal mammary gland epithelial cells MCF-10A. Type of experiment: cell-based. Conditions: for inhibition ratio of MCF-10A growth: 10 μM each peptide, 24 hours. The method, then:
as §2

Experiment [4] relates to Human breast cancer cell line MDA-MB-231. Conditions: 96 h.
Method: MDA-MB-231 cells were seeded into 48-well plates at a cell density of 1×10^4 cells/200 μL in well. […] Data were obtained from three independent experiments, a graph (mean±standard deviation) was produced using a graphing and data analyzing software SigmaPlot (Systat Software, San Jose, CA, USA), and the 50% inhibition concentration (IC50) of the peptide against cell growth was calculated.
The subject of experiment [5] is Human breast cancer cell line MCF-7. Put plainly: Estrogen (E2)-dependent growth assay on MCF-7. The class given is cell-based. The conditions noted are these: 10 nM estrogen.
For experiment [6], the system named is Human breast cancer cell line MDA-MB-231. Put plainly: Combination assay on MDA-MB-231. Type of experiment: cell-based. The conditions noted are these: MDA-MB-231, each peptide at respective IC50, 96 hours. The method, then:
MDA-MB-231 cells were seeded into 48-well plates at a cell density of 1×10^4 cells/200 μL in well. 48 hours later, the medium in each well was exchanged to media supplemented with PHB2 peptide 11-22aa (added concentration: IC50 value), PHB2 peptide 76-90aa (added concentration: IC50 value) and a mixed solution of both peptides (added concentration: respective IC50 value), respectively, or to a medium supplemented with phosphate buffered saline (PBS) as a negative control. After culture for another 96 hours, the cell growth level was measured using the Cell Counting Kit-8 (Dojindo, Kumamoto, Japan). The data obtained was used to calculate relative values based on the growth level when PBS was added, and the graph was produced.

The target in experiment [7] is T1, interaction between BIG3 and PHB2 (Homo sapiens, UniProt Q5TH69).
T1 construct: endogenous in cells; host or cells: MCF-7 (human breast cancer cell line)
T1 sequence (Q5TH69 whole entry): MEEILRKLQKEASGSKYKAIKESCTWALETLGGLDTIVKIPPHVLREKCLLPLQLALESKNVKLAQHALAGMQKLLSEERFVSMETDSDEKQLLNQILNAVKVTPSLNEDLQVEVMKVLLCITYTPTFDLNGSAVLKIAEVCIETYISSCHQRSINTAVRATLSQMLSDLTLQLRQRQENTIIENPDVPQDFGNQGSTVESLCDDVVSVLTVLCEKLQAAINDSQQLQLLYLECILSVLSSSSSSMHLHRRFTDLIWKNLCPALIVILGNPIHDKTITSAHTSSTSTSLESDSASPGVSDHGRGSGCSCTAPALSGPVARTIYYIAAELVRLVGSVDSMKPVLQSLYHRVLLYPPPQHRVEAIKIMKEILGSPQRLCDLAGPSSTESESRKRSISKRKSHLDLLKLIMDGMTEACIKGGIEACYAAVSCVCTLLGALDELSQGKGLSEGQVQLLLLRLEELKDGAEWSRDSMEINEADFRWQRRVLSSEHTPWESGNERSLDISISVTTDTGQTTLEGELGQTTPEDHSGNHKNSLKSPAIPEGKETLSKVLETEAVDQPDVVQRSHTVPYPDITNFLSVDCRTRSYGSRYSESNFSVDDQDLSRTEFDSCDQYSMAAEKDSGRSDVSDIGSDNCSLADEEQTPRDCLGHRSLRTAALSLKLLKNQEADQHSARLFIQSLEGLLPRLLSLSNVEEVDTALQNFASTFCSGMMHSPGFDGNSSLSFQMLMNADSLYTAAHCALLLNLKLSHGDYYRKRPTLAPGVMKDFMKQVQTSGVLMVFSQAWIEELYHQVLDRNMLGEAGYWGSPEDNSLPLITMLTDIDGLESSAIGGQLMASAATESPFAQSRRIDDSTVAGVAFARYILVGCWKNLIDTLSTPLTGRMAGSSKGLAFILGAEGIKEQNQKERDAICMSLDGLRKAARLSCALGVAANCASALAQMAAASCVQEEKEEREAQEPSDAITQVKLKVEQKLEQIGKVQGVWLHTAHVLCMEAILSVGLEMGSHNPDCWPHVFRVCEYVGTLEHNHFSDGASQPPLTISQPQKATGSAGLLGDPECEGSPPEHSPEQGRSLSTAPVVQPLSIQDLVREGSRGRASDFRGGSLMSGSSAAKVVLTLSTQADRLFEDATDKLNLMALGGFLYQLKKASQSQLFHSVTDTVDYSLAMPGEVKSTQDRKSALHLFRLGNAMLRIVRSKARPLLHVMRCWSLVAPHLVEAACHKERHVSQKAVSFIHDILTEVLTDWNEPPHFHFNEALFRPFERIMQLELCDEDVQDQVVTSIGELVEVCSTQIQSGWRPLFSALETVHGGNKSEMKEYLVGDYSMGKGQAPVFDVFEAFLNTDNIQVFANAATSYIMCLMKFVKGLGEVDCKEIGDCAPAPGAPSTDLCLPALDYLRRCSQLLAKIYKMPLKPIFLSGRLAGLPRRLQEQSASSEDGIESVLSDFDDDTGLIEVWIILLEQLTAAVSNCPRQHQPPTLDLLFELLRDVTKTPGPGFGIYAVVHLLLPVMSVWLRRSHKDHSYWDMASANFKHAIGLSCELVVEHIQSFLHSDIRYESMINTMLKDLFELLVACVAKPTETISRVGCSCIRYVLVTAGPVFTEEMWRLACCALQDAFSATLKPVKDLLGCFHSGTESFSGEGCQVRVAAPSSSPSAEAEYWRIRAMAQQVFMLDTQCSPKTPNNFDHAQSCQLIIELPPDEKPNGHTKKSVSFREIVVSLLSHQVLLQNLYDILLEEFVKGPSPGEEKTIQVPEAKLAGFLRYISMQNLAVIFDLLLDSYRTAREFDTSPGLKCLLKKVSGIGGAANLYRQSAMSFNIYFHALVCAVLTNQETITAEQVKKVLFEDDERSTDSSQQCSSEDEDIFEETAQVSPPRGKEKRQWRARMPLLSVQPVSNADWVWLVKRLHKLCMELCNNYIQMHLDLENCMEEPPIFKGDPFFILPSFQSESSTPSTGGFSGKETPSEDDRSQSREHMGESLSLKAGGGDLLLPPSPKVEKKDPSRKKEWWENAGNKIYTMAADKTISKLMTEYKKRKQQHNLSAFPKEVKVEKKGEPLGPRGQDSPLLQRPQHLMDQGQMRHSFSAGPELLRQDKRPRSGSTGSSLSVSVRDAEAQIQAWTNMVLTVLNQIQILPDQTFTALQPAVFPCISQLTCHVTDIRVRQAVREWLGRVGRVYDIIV
Put plainly: Inhibition of BIG3-PHB2 binding in MCF-7, immunoprecipitation with anti-BIG3 antibody and Western blotting. Type of experiment: cell-based. The conditions noted are these: MCF-7 (FIG. 3B). The procedure:
as §1
For immunoprecipitation, MCF-7 was seeded into 10 cm dishes (2×10^6 cells/10 mL), and like cell growth assay, MCF-7 was treated with 10 nM estrogen alone or with 10 nM estrogen and PHB2 sequence-derived peptide. For immunoprecipitation analysis, cell lysates lysed in a cell lysis buffer (50 mM Tris-HCl; pH 8.0, 150 mM NaCl, 0.1% NP-40, and 0.5% CHAPS; 0.1% protease inhibitor cocktail III) were pre-cleared with a rat IgG antibody and rec-Protein G Sepharose 4B (Thermo Fisher Scientific) at 4° C. for 3 hours. Then, the supernatants were incubated for reaction with 5 μg of an antibody against BIG3 at 4° C. for 12 hours. […]

Setting [8] is: MCF-7, 10 μM peptide alone, after 96 hours.
Setting [9] is: MCF-7, 4 μM cyclic 11-21aa, 2 μM cyclic 76-88aa, up to 96 hours (FIG. 7B).
The mark [10] stands for this setting: MCF-10A (FIG. 6B), 1 μM or 10 μM, up to 96 hours.
Where [11] appears, read: MCF-10A, cyclic 11-21aa 4 μM, cyclic 76-88aa 2 μM (FIG. 7C).

Positions of bridges follow the written chain, without caps; N, C: chain ends. Non-standard residues stand in square brackets, D forms with d. Residues, ends and D or L forms follow the SMILES beside them. No end group written: not given here. 2Nal = N[C@@H](Cc1ccc2ccccc2c1)C(=O)O; Nle = CCCC[C@H](N)C(=O)O; PEG = not defined here

For “No. 6: PHB2 peptide 86-100aa (negative control) (RPRKISSPTGSKDLQ; not fully specified (C-terminus))”, in experiment [1], the “band intensity of Ser39 phosphorylation of PHB2 compared to ERAP treatment” value (“band intensity … compared to ERAP treatment” below) stood at 10%. In experiment [2], the “suppression ratio of E2-dependent growth” value is “about 10%”.

On to “branched bound: 11-22aa and 76-90aa sequences synthesized with branching, linked via a PEG sequence (peptide 1 RLPAGPRGMGTA; peptide 2 QYPIIYDIRARPRKI; linker (positions not given here) via PEG; not fully specified (N-terminus); reading uncertain; also: branched construct, branch and link places not given here)”, for which the “inhibition ratio of MCF-10A growth” value in experiment [3] (MCF-10A) is given as “no effect on growth”. In addition, the “suppression ratio of E2-dependent growth” value in experiment [2] stood at 57%.

Consider `CSCC[C@H](NC(=O)CNC(=O)[C@H](CCCNC(=N)N)NC(=O)[C@@H]1CCCN1C(=O)CNC(=O)[C@H](C)NC(=O)[C@@H]1CCCN1C(=O)[C@H](CC(C)C)NC(=O)[C@@H](N)CCCNC(=N)N)C(=O)NCC(=O)N[C@H](C(=O)N[C@@H](C)C(=O)N[C@@H](CCCNC(=N)N)C(=O)N[C@@H](CCCNC(=N)N)C(=O)N[C@@H](CCCNC(=N)N)C(=O)N[C@@H](CCCNC(=N)N)C(=O)N[C@@H](CCCNC(=N)N)C(=O)N[C@@H](CCCNC(=N)N)C(=O)N[C@@H](CCCNC(=N)N)C(=O)N[C@@H](CCCNC(=N)N)C(=O)O)[C@@H](C)O` [No. 1], for which 462 nM corresponded to half-maximal inhibition in experiment [4] (IC50). Moreover, the “suppression ratio of E2-dependent growth” value is given as 31% in experiment [5] (setting [8]), 40% in experiment [2] (listed as 11-22aa), 63% in experiment [2] (listed as PHB2 (11-22aa)) and “about 65%” in experiment [2] (listed as SEQ ID NO: 1). Also, the “band intensity … compared to ERAP treatment” value in experiment [1] came out at 40%. Besides, the “suppression of growth compared to PBS” value in experiment [6] is “about 50%”. In addition, the “inhibition ratio of MCF-10A growth” value in experiment [3] (MCF-10A) was “no effect on growth”.

With `CC[C@H](C)[C@H](NC(=O)[C@H](CC(=O)O)NC(=O)[C@H](Cc1ccc(O)cc1)NC(=O)[C@@H](NC(=O)[C@@H](NC(=O)[C@@H]1CCCN1C(=O)[C@H](Cc1ccc(O)cc1)NC(=O)[C@@H](N)CCC(N)=O)[C@@H](C)CC)[C@@H](C)CC)C(=O)N[C@@H](CCCNC(=N)N)C(=O)N[C@@H](C)C(=O)N[C@@H](CCCNC(=N)N)C(=O)N1CCC[C@H]1C(=O)N[C@@H](CCCNC(=N)N)C(=O)N[C@@H](CCCCN)C(=O)N[C@H](C(=O)N[C@@H](CCCNC(=N)N)C(=O)N[C@@H](CCCNC(=N)N)C(=O)N[C@@H](CCCNC(=N)N)C(=O)N[C@@H](CCCNC(=N)N)C(=O)N[C@@H](CCCNC(=N)N)C(=O)N[C@@H](CCCNC(=N)N)C(=O)N[C@@H](CCCNC(=N)N)C(=O)N[C@@H](CCCNC(=N)N)C(=O)O)[C@@H](C)CC` [No. 5], in experiment [4], the IC50 (as a rule, the point on the concentration scale where inhibition reaches its midpoint) was 273 nM. The “suppression ratio of E2-dependent growth” value in experiment [5] (setting [8]) is 24%; in experiment [2] (listed as 76-90aa), 61%; in experiment [2] (listed as PHB2 (76-90aa)), 51%. Moreover, the “band intensity … compared to ERAP treatment” value in experiment [1] is reported as 20%. The “suppression of growth compared to PBS” value in experiment [6] is “about 50%”. In addition, the “inhibition ratio of MCF-10A growth” value in experiment [3] (MCF-10A) is on record as “no effect on growth”.

Take `CC[C@H](C)[C@@H]1NC(=O)[C@H](CC(=O)O)NC(=O)[C@H](Cc2ccc(O)cc2)NC(=O)[C@H]([C@@H](C)CC)NC(=O)[C@H]([C@@H](C)CC)NC(=O)[C@@H]2CCCN2C(=O)[C@H](Cc2ccc(O)cc2)NC(=O)[C@H](CCC(N)=O)NC(=O)[C@@H]2CSSC[C@H](NC(=O)[C@H](CCCNC(=N)N)NC(=O)[C@@H]3CCCN3C(=O)[C@H](CCCNC(=N)N)NC(=O)[C@H](C)NC(=O)[C@H](CCCNC(=N)N)NC1=O)C(=O)N[C@@H](Cc1ccccc1)C(=O)N[C@@H](Cc1ccc3ccccc3c1)C(=O)N[C@@H](CCCNC(=N)N)C(=O)N[C@@H](CCCNC(=N)N)C(=O)N[C@@H](CCCNC(=N)N)C(=O)N[C@@H](CCCNC(=N)N)C(=O)N2` [cyclic 76-88aa] (cyclo(CQYPIIYDIRARPRCF[2Nal]RRRR); disulfide 1-15): the “suppression ratio of E2-dependent growth” value in experiment [5] (setting [9]) is recorded as 59%; in experiment [5] (setting [8]), 72%; in experiment [2], “enhanced suppression ratios compared to non-cyclic peptides”; in experiment [2] (listed as cyclic peptide 76-88aa), 58%. The “effect on growth of MCF-10A” value in experiment [3] (setting [10]) is recorded as “no effect on the growth”; in experiment [3] (setting [11]), “no effect on growth”.

Take `CCCC[C@@H]1NC(=O)CNC(=O)[C@H](CCCNC(=N)N)NC(=O)[C@@H]2CCCN2C(=O)CNC(=O)[C@H](C)NC(=O)[C@@H]2CCCN2C(=O)[C@H](CC(C)C)NC(=O)[C@H](CCCNC(=N)N)NC(=O)[C@@H]2CSSC[C@H](NC(=O)[C@H]([C@@H](C)O)NC(=O)CNC1=O)C(=O)N[C@@H](Cc1ccccc1)C(=O)N[C@@H](Cc1ccc3ccccc3c1)C(=O)N[C@@H](CCCNC(=N)N)C(=O)N[C@@H](CCCNC(=N)N)C(=O)N[C@@H](CCCNC(=N)N)C(=O)N[C@@H](CCCNC(=N)N)C(=O)N2` [cyclic 11-21aa] (cyclo(CRLPAGPRG[Nle]GTCF[2Nal]RRRR); disulfide 1-13): the “suppression ratio of E2-dependent growth” value in experiment [5] (setting [9]) is on record as 41%; in experiment [5] (setting [8]) it was 67%; in experiment [2], “enhanced suppression ratios compared to non-cyclic peptides”; in experiment [2] (listed as cyclic peptide 11-21aa), 53%. In addition, the entries for the “effect on growth of MCF-10A” value in experiment [3] (setting [10]) and in experiment [3] (setting [11]) were “no effect on the growth” and “no effect on growth”, respectively.

B1: 11-90aa: PHB2 peptide of 11-90aa comprising the two regions of No. 1 and No. 5; 80 amino acids (peptide)
chain: RLPAGPRGMGTALKLLLGAGAVAYGVRESVFTVEGGHRAIFFNRIGGVQQDTILAEGLHFRIPWFQYPIIYDIRARPRKI
modifications: PHB2 derived peptide 11-90aa
notes: PHB2 peptide of 11-90aa comprising the two regions of No. 1 and No. 5; 80 amino acids
Regarding B1, in experiment [7], the “inhibition of the binding between BIG3 and PHB2” value was “did not provide a sufficient effect of inhibiting the binding”.

The record behind these values is US12595289B2, “Therapeutic agent for breast cancer comprising BIG3-PHB2 interaction-inhibiting peptide derived from PHB2” (TOKUSHIMA UNIVERSITY, priority 2018, dated 2026).
